Test results as given in patent US20220395559A1, “SOLID COMPOSITIONS COMPRISING A GLP-1 AGONIST, AN SGLT2 INHIBITOR AND A SALT OF N-(8-(2-HYDROXYBENZOYL)AMINO)CAPRYLIC ACID” (Novo Nordisk A/S, priority 2019, published 2022).
Where two headings read alike, the source gives them in different places.

Assays:
[1] = pH 6
[2] = SNAC solubility vs SNAC control, hydrotrope 200 mg/mL, pH 6
[3] = hydrotrope 200 mg/mL in water, pH 6, room temperature, 4 hours incubation

Structure (SMILES)	Fold increase in solubility [2]	SNAC concentration [3] [mg/mL]	effect on SNAC solubility (FIG. 1) [1]	Fold increase in solubility (pH 6)	SNAC concentration (pH 6) [mg/mL]
O=C([O-])c1ccccc1O.[Na+] [Sodium salicylate]	–	–	–	2.7	1.59
NC(N)=O [Urea]	1.3	0.77	–	–	–
O=C(O[C@@H]1Cc2c(O)cc(O)cc2O[C@@H]1c1cc(O)c(O)c(O)c1)c1cc(O)c(O)c(O)c1 [Epigallocatechin gallate]	9.6	5.66	–	–	–
CN(C)C(=O)c1ccccc1 [N,N dimethyl benzamide]	38	22.46	–	–	–

Second part, led by results:

Fold increase in solubility [2]	SNAC concentration [3] [mg/mL]	effect on SNAC solubility (FIG. 1) [1]	Structure (SMILES)	Fold increase in solubility (pH 6)	SNAC concentration (pH 6) [mg/mL]
7.8	4.58	–	CCN(CC)C(=O)c1cccnc1 [N,N diethyl nicotinamide]	–	–
–	–	dose dependent effect	NC(=O)c1cccnc1 [Nicotinamide]	–	–
